Some test systems named below: BT-549 breast; HCC-2998 colon; HCT-15 colon; HL-60(TB) leukemia; M14 melanoma; MCF7 breast; MDA-MB-231 breast; NCI-H460 lung; PC-3 prostate; SR leukemia.
What all share (test): NCI anticancer screen, dose series, 48 h

Our source for the TGI values is PubChem BioAssay (NCI).

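Cultured in 96-well plates, cells were exposed to test compound for 48 hours across five concentrations. TGI: total growth inhibition.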 Where a SMILES comes first, the peptide text is derived from it. The star is where a group is joined. Fmoc = O=C(OCC1c2ccccc2-c2ccccc21)*; Boc = CC(C)(C)OC(=O)* Some results are limits rather than exact numbers.

For `OCCOc1ccccc2cccc1-2`, the TGI with BT-549 breast, in the assay on HCC-2998 colon, with HCT-15 colon, in the assay with HL-60(TB) leukemia, with M14 melanoma and in the assay on MCF7 breast was > 100 µM in each case. The TGI in the assay with MDA-MB-231 breast, with NCI-H460 lung, in the assay on PC-3 prostate and with SR leukemia was > 100 µM throughout.
On to `CC(C)(C)OC(=O)NCCCCC(NC(=O)C(Cc1c[nH]c2ccccc12)NC(=O)OCC1c2ccccc2-c2ccccc21)C(=O)N1CCCC1C(=O)NCC(N)=O` (stereo not given) (Fmoc-WK(Boc)PG-NH2; configuration not given here), for which the TGI in the assay on BT-549 breast, in the assay on HCC-2998 colon, in the assay with HCT-15 colon, in the assay on HL-60(TB) leukemia, in the assay with M14 melanoma and in the assay with MCF7 breast was > 100 µM in each case. Moreover, the TGI in the assay on MDA-MB-231 breast, with NCI-H460 lung, with PC-3 prostate and in the assay with SR leukemia was > 100 µM throughout.
On to `CC1C(OC2O[C@@H]3O[C@@]4(C)CC[C@H]5[C@H](C)CC[C@@H](C2C)[C@@]35O4)O[C@@H]2O[C@@]3(C)CC[C@H]4[C@H](C)CC[C@@H]1[C@@]24O3` (stereo not given in full), for which the TGI in the assay on BT-549 breast, in the assay with HCC-2998 colon, in the assay with HCT-15 colon, in the assay on HL-60(TB) leukemia, in the assay on M14 melanoma and in the assay with MCF7 breast was > 50 µM each time. Also, the TGI with MDA-MB-231 breast, in the assay on NCI-H460 lung, with PC-3 prostate and in the assay on SR leukemia was > 50 µM throughout.
In the case of `O=C(O)c1ccc(C2SCc3nc4ccccc4n32)cc1` (stereo not given), the TGI in the assay on BT-549 breast, with HCC-2998 colon, in the assay on HCT-15 colon, in the assay on HL-60(TB) leukemia, with M14 melanoma and with MCF7 breast was > 100 µM each time. Besides, the TGI in the assay with MDA-MB-231 breast, with NCI-H460 lung, in the assay on PC-3 prostate and in the assay with SR leukemia was > 100 µM each time.
Take `O=C(O)CCCc1ccc2ccccc2c1`: the TGI with BT-549 breast, in the assay on HCC-2998 colon, in the assay with HCT-15 colon, in the assay on HL-60(TB) leukemia, in the assay on M14 melanoma and with MCF7 breast was > 100 µM in each case. Also, the TGI in the assay on MDA-MB-231 breast, in the assay on NCI-H460 lung, with PC-3 prostate and in the assay with SR leukemia was > 100 µM throughout.
As for `COC(=O)/C=C/C1(O)C=CC(=O)C=C1`, the TGI in the assay on BT-549 breast was 22.9 µM; with HCC-2998 colon it was 21 µM; in the assay with HCT-15 colon, > 31.9 µM; in the assay on HL-60(TB) leukemia, 6.8 µM; in the assay on M14 melanoma, 3.78 µM; with MCF7 breast, 13.2 µM. Also, the TGI in the assay with MDA-MB-231 breast was 5.37 µM; with NCI-H460 lung it was > 61.7 µM; with PC-3 prostate, 9.53 µM; in the assay with SR leukemia, 10.7 µM.
With `COc1cc(-c2[o+]c3cc(O)cc(O)c3cc2O)cc(O)c1O`, the TGI was > 100 µM in the assay with BT-549 breast; > 100 µM in the assay on HCC-2998 colon; > 100 µM with HCT-15 colon; > 100 µM in the assay with HL-60(TB) leukemia; > 100 µM with M14 melanoma; 46.3 µM in the assay with MCF7 breast. The TGI with MDA-MB-231 breast, in the assay with NCI-H460 lung, with PC-3 prostate and in the assay with SR leukemia was > 100 µM in each case.
For `O=C(C/C(=N/O)c1cc(-c2ccccc2)no1)c1ccccc1`, the TGI was 75.1 µM in the assay on BT-549 breast; > 100 µM in the assay with HCC-2998 colon; > 100 µM in the assay on HCT-15 colon; 74.6 µM in the assay on HL-60(TB) leukemia; > 100 µM with M14 melanoma; > 100 µM in the assay on MCF7 breast. In addition, the TGI with MDA-MB-231 breast was 46.1 µM; with NCI-H460 lung, > 100 µM; with PC-3 prostate, > 100 µM; in the assay on SR leukemia it was > 100 µM.
As for `COc1ccc2cc(-c3nc(N)nc(N4N=C(C)CC4(C)C)n3)c(=N)oc2c1`, the TGI in the assay with BT-549 breast was 48.1 µM; in the assay with HCC-2998 colon it was 32.6 µM; in the assay with HCT-15 colon, 32 µM; in the assay on HL-60(TB) leukemia, 43.9 µM; with M14 melanoma it was 38.1 µM; in the assay on MCF7 breast it was 44.2 µM. The TGI is 44.8 µM with MDA-MB-231 breast, 35.6 µM in the assay with NCI-H460 lung, 39.2 µM in the assay with PC-3 prostate and 32.1 µM in the assay with SR leukemia.
With `COc1ccc(/C=C2\CCC/C(=C\c3ccc(O)c(CN4CCCCC4)c3)C2=O)cc1`, the TGI in the assay with BT-549 breast is 37.7 µM; in the assay with HCC-2998 colon it was 33.4 µM; in the assay with HCT-15 colon, 36 µM; in the assay with HL-60(TB) leukemia it was > 100 µM; in the assay with M14 melanoma, 35.3 µM; in the assay with MCF7 breast, 28.5 µM. Further, the TGI with MDA-MB-231 breast is 35.2 µM; in the assay with NCI-H460 lung it was 44.8 µM; in the assay with PC-3 prostate it was 42.7 µM; with SR leukemia it was 19.8 µM.
As to `CCOC(=O)C(=O)/C(=C/N1C(=O)CC(=O)NC1=S)C(=O)OCC`, the TGI in the assay on BT-549 breast, in the assay on HCC-2998 colon, in the assay on HCT-15 colon, in the assay with HL-60(TB) leukemia, in the assay with M14 melanoma and in the assay with MCF7 breast was > 100 µM each time. Moreover, the TGI in the assay with MDA-MB-231 breast, in the assay with NCI-H460 lung, in the assay on PC-3 prostate and in the assay on SR leukemia was > 100 µM throughout.
Consider `CSc1ccc(/C=C2\N=C(c3ccccc3)N(c3nc4cc(C)c(C)cc4s3)C2=O)cc1`, for which the TGI in the assay with BT-549 breast is 98.1 µM; with HCC-2998 colon it was 82.4 µM; in the assay with HCT-15 colon it was > 100 µM; with HL-60(TB) leukemia, 86.3 µM; in the assay with M14 melanoma, 75.8 µM; with MCF7 breast, 37.2 µM. In addition, the TGI in the assay with MDA-MB-231 breast is > 100 µM; in the assay with NCI-H460 lung it was > 100 µM; in the assay with PC-3 prostate it was 49.3 µM; in the assay on SR leukemia it was 54.2 µM.
For `C1CC[C@H]2SSC3CCCC[C@H]3SSC2C1` (stereo not given in full), the TGI with BT-549 breast, in the assay on HCC-2998 colon, in the assay on HCT-15 colon, with HL-60(TB) leukemia, with M14 melanoma and in the assay on MCF7 breast was > 100 µM in each case. In addition, the TGI with MDA-MB-231 breast, with NCI-H460 lung, in the assay on PC-3 prostate and in the assay on SR leukemia was > 100 µM each time.
For the compound `C[C@@H](NC(=O)c1ccc(CNC(=O)/C=C/c2cccc(Oc3ccccc3)c2)cc1)c1ccccc1`, the TGI in the assay on BT-549 breast, in the assay with HCC-2998 colon, in the assay on HCT-15 colon, in the assay on HL-60(TB) leukemia, with M14 melanoma and in the assay on MCF7 breast was > 100 µM in each case. For the same compound, the TGI with MDA-MB-231 breast, in the assay on NCI-H460 lung, in the assay on PC-3 prostate and in the assay on SR leukemia was > 100 µM in each case.
Take `O=C1C=CC(=O)c2c1ccc1c3ccccc3n(Cc3cccc([N+](=O)[O-])c3)c21`: the TGI in the assay on BT-549 breast is > 69.7 µM; in the assay on HCC-2998 colon, > 100 µM; in the assay with HCT-15 colon, 50.2 µM; with HL-60(TB) leukemia, 15.3 µM; in the assay on M14 melanoma, 71.7 µM; with MCF7 breast, 65.6 µM. Besides, the TGI was 61.1 µM with MDA-MB-231 breast, > 100 µM in the assay with NCI-H460 lung, > 69 µM in the assay with PC-3 prostate and > 32.6 µM with SR leukemia.
On to `C=C(CN1CC2C[C@](C(=O)OC)(c3cc4ccccc4[nH]3)C1C(OC)C2OC)S(=O)(=O)c1ccccc1` (stereo not given in full), for which the TGI in the assay with BT-549 breast is 12.4 µM; in the assay with HCC-2998 colon, 3.73 µM; in the assay on HCT-15 colon, 8.61 µM; with HL-60(TB) leukemia it was 5.12 µM; in the assay with M14 melanoma, 9.36 µM; with MCF7 breast, 18.9 µM. Moreover, the TGI came out at 10.9 µM in the assay with MDA-MB-231 breast, 12 µM with NCI-H460 lung, 13 µM with PC-3 prostate and 5.91 µM with SR leukemia.
As for `CC(C)Cc1cc2c(cc1O)CCC1C2CC[C@@]2(C)C1CC[C@@H]2O` (stereo not given in full), the TGI in the assay on BT-549 breast came to 14.2 µM; in the assay with HCC-2998 colon, 36.1 µM; in the assay on HCT-15 colon, 21.7 µM; with HL-60(TB) leukemia it was 8 µM; with M14 melanoma it was 19.3 µM; with MCF7 breast, 25.9 µM. Besides, the TGI in the assay with MDA-MB-231 breast is 20 µM; in the assay with NCI-H460 lung it was 25.5 µM; in the assay with PC-3 prostate it was 21 µM; with SR leukemia, 19.8 µM.
For the compound `CCOC(=O)C(C(=S)SC)c1nn2c(=O)cc(C)nc2s1` (stereo not given), the TGI with BT-549 breast was 34.2 µM; in the assay on HCC-2998 colon, 47.2 µM; in the assay on HCT-15 colon it was 35.3 µM; with HL-60(TB) leukemia it was 35.3 µM; in the assay with M14 melanoma it was 29.8 µM; in the assay with MCF7 breast it was 33.1 µM. Moreover, the TGI in the assay with MDA-MB-231 breast was found to be 37.9 µM; with NCI-H460 lung it was 35.6 µM; in the assay with PC-3 prostate it was 37.3 µM; in the assay on SR leukemia, 47.1 µM.
As for `O=C1CSC(c2c[nH]c3ccccc23)N1c1ccccc1[N+](=O)[O-]` (stereo not given), the TGI in the assay on BT-549 breast, in the assay on HCC-2998 colon, with HCT-15 colon, with HL-60(TB) leukemia, with M14 melanoma and in the assay on MCF7 breast was > 100 µM in each case. Moreover, the TGI in the assay on MDA-MB-231 breast, in the assay with NCI-H460 lung, with PC-3 prostate and with SR leukemia was > 100 µM in each case.
As for `Cc1nnc(N)nc1/C=C/c1c(O)ccc2ccccc12`, the TGI in the assay with BT-549 breast is > 100 µM; in the assay with HCC-2998 colon, 45.2 µM; in the assay with HCT-15 colon it was 44 µM; with HL-60(TB) leukemia, 71.4 µM; in the assay with M14 melanoma it was 44.1 µM; in the assay with MCF7 breast, > 100 µM. Further, the TGI in the assay with MDA-MB-231 breast was > 100 µM; in the assay on NCI-H460 lung, 71.2 µM; in the assay with PC-3 prostate, 64.1 µM; in the assay with SR leukemia it was > 100 µM.
